What was measured:
[1] = test system: Propionibacterium granulosum ATCC 11829; assay: MIC and MBC by the agar dilution method; type: cell-based
Method: (§1) To assess the anti-microbial potency of Neramexane against acne relevant bacterias the minimal inhibitory concentration (MIC) and minimal bactericidal concentration (MBC) against the following bacterias is established: The MICs of the samples are determined using the agar dilution method based on DIN 58940. Petri dishes of 5.5 cm diameter are poured with 2.5 ml of freshly prepared Mueller-Hinton agar (Merck company, Cat-No 1.05437) or Wilkins-Chalgren-Agar (Oxoid company, Cat-No CM643), maintained in liquid form at 50° C., to which the sample dilutions at various concentrations have been added at 50.0 vol.-%. To prepare the starting sample dilutions, a 12.5%, 3.12% suspension of the respective sample solution is prepared with Aqua purificata. From these stock-solutions, further dilutions are prepared with Aqua purificata. All test compounds are adjusted to pH 5.5. For test product no. 1, separate dilutions adjusted to pH 6.0 and pH 7.4 are also prepared. For inoculation, 1 μl of the respective germ suspension is placed on the centre of each agar plate. After drying, inoculated plates are incubated at 36.0±2.0° C. The basis for the length of incubation period is the respective growth control cultivated in parallel. The test microbe suspension is prepared by inoculating a few individual colonies of the respective bacteria into sterile saline solution until a turbidity corresponding to the McFarland standard 1.0 (approximately 10^8 cfu/ml) is reached. After that, the test microbe suspensions are further diluted 1:10 with saline solution and the microbial counts (see Table 21) are determined by the surface spread method using a spiral plater. The agar plates are incubated under the conditions given in Table 22 and subsequently evaluated. The MIC-values as given represent the lowest concentration of the active substance at which there is no macroscopically visible growth. Minimal, barely visible growth or few small individual colonies are evaluated as inhibition. [table] All negative tests of the determination of the minimal bactericial concentration are the basis of verification of remaining germs, the inoculated agar segments are cut and put in Mueller-Hinton-Bouillon (germ 1) or Wilkins-Chalgren-Bouillon (germs 2-4). After an adequate incubation period at 36.0±2.0° C. (as judged from a control without test compound), the tests are checked manually on microbial growth (=turbidity) and the minimal bactericidal concentration is determined. MBC indicates the concentration without marked turbidity. Grown germs are checked for identity to rule out unspecific contaminations. The following results are summarized and tabulated: • a) Results of the Minimal Inhibitory Concentration (MIC)* • b) Results of the Minimal Bactericidal Concentration (MBC) *The MIC is the concentration without macroscopical growth. Scarcely apparent, minimum growth or few single colonies are not considered. The controls must have a respectively good developed growth. There must be no growth on the agar plates for the sterile control. The growth of bacteria is indicated for the duplicate plates by a +(i.e., growth) or a −(i.e., no growth), +− indicates weak growth on both plates or growth on one plate and no growth on the other plate. All bacteria show appropriate growth on the respective control plate not containing any test compound. No influence of the used diluent (Aqua purifacata) was observed. No contamination is observed on the control-plates.

[2] = test system: Staphylococcus epidermidis ATCC 12228; assay: MIC and MBC by the agar dilution method; type: cell-based; conditions: pH 5.5
Method: as §1

[3] = final concentration 0.08 %, pH 5.5
[4] = final concentration 0.08 %, pH 6.0
[5] = final concentration 0.08 %, pH 7.4
[6] = final concentration 0.16 %, pH 5.5
[7] = final concentration 0.16 %, pH 6.0
[8] = final concentration 0.16 %, pH 7.4
[9] = final concentration 0.31 %, pH 5.5
[10] = final concentration 0.31 %, pH 6.0
[11] = final concentration 0.31 %, pH 7.4
[12] = final concentration 0.63 %, pH 5.5
[13] = final concentration 0.63 %, pH 6.0
[14] = final concentration 0.63 %, pH 7.4
[15] = final concentration 1.56 %, pH 5.5
[16] = final concentration 1.56 %, pH 6.0
[17] = final concentration 1.56 %, pH 7.4
[18] = final concentration 2.50 %, pH 5.5
[19] = final concentration 2.50 %, pH 6.0
[20] = final concentration 2.50 %, pH 7.4
[21] = final concentration 3.13 %, pH 5.5
[22] = final concentration 3.13 %, pH 6.0
[23] = final concentration 3.13 %, pH 7.4
[24] = final concentration 6.25 %, pH 5.5
[25] = final concentration 6.25 %, pH 6.0
[26] = final concentration 6.25 %, pH 7.4

growth of bacteria on duplicate plates (MIC determination) ([1]; final concentration 0.01 %, pH 5.5): + + | growth of bacteria on duplicate plates (MIC determination) ([1]; final concentration 0.01 %, pH 6.0): + + | growth of bacteria on duplicate plates (MIC determination) ([1]; final concentration 0.01 %, pH 7.4): + + | growth of bacteria on duplicate plates (MIC determination) ([1]; final concentration 0.04 %, pH 5.5): + + | growth of bacteria on duplicate plates (MIC determination) ([1]; final concentration 0.04 %, pH 6.0): + − | growth of bacteria on duplicate plates (MIC determination) ([1]; final concentration 0.04 %, pH 7.4): + − | growth of bacteria on duplicate plates (MIC determination) [1, 3]: − − | growth of bacteria on duplicate plates (MIC determination) [1, 4]: − − | growth of bacteria on duplicate plates (MIC determination) [1, 5]: − − | growth of bacteria on duplicate plates (MIC determination) [1, 6]: − − | growth of bacteria on duplicate plates (MIC determination) [1, 7]: − − | growth of bacteria on duplicate plates (MIC determination) [1, 8]: − − | growth of bacteria on duplicate plates (MIC determination) [1, 9]: − − | growth of bacteria on duplicate plates (MIC determination) [1, 10]: − − | growth of bacteria on duplicate plates (MIC determination) [1, 11]: − − | growth of bacteria on duplicate plates (MIC determination) [1, 12]: − − | growth of bacteria on duplicate plates (MIC determination) [1, 13]: − − | growth of bacteria on duplicate plates (MIC determination) [1, 14]: − − | growth of bacteria on duplicate plates (MIC determination) [1, 15]: − − | growth of bacteria on duplicate plates (MIC determination) [1, 16]: − − | growth of bacteria on duplicate plates (MIC determination) [1, 17]: − − | growth of bacteria on duplicate plates (MIC determination) [1, 18]: − − | growth of bacteria on duplicate plates (MIC determination) [1, 19]: − − | growth of bacteria on duplicate plates (MIC determination) [1, 20]: − − | growth of bacteria on duplicate plates (MIC determination) [1, 21]: − − | growth of bacteria on duplicate plates (MIC determination) [1, 22]: − − | growth of bacteria on duplicate plates (MIC determination) [1, 23]: − − | growth of bacteria on duplicate plates (MIC determination) [1, 24]: − − | growth of bacteria on duplicate plates (MIC determination) [1, 25]: − − | growth of bacteria on duplicate plates (MIC determination) [1, 26]: − − | MIC ([1]; pH 5.5): 0.08% | MIC ([1]; pH 6.0): 0.08% | MIC ([1]; pH 7.4): 0.08% | growth of bacteria on duplicate plates (MIC determination) ([2]; final concentration 0.01 %): + + | growth of bacteria on duplicate plates (MIC determination) ([2]; final concentration 0.04 %): + + | growth of bacteria on duplicate plates (MIC determination) ([2]; final concentration 0.08 %): + + | growth of bacteria on duplicate plates (MIC determination) ([2]; final concentration 0.16 %): − − | growth of bacteria on duplicate plates (MIC determination) ([2]; final concentration 0.31 %): − − | growth of bacteria on duplicate plates (MIC determination) ([2]; final concentration 0.63 %): − − | growth of bacteria on duplicate plates (MIC determination) ([2]; final concentration 1.56 %): − − | growth of bacteria on duplicate plates (MIC determination) ([2]; final concentration 2.50 %): − − | growth of bacteria on duplicate plates (MIC determination) ([2]; final concentration 3.13 %): − − | growth of bacteria on duplicate plates (MIC determination) ([2]; final concentration 6.25 %): − − | MIC [2]: 0.16%
SMILES: CC1(C)CC(C)(C)CC(C)(N)C1.CS(=O)(=O)O [Neramexane mesylate]
growth of bacteria (MBC determination) [1, 3]: + + | growth of bacteria (MBC determination) [1, 4]: + + | growth of bacteria (MBC determination) [1, 5]: + + | growth of bacteria (MBC determination) [1, 6]: + + | growth of bacteria (MBC determination) [1, 7]: + + | growth of bacteria (MBC determination) [1, 8]: + + | growth of bacteria (MBC determination) [1, 9]: + + | growth of bacteria (MBC determination) [1, 10]: − − | growth of bacteria (MBC determination) [1, 11]: + + | growth of bacteria (MBC determination) [1, 12]: − − | growth of bacteria (MBC determination) [1, 13]: − − | growth of bacteria (MBC determination) [1, 14]: + + | growth of bacteria (MBC determination) [1, 15]: − − | growth of bacteria (MBC determination) [1, 16]: − − | growth of bacteria (MBC determination) [1, 17]: − − | growth of bacteria (MBC determination) [1, 18]: − − | growth of bacteria (MBC determination) [1, 19]: − − | growth of bacteria (MBC determination) [1, 20]: − − | growth of bacteria (MBC determination) [1, 21]: − − | growth of bacteria (MBC determination) [1, 22]: − − | growth of bacteria (MBC determination) [1, 23]: − − | growth of bacteria (MBC determination) [1, 24]: − − | growth of bacteria (MBC determination) [1, 25]: − − | growth of bacteria (MBC determination) [1, 26]: − − | MBC ([1]; pH 5.5): 0.63% | MBC ([1]; pH 6.0): 0.31% | MBC ([1]; pH 7.4): 1.56% | growth of bacteria (MBC determination) ([2]; final concentration 0.16 %): + + | growth of bacteria (MBC determination) ([2]; final concentration 0.31 %): + + | growth of bacteria (MBC determination) ([2]; final concentration 0.63 %): + + | growth of bacteria (MBC determination) ([2]; final concentration 1.56 %): − − | growth of bacteria (MBC determination) ([2]; final concentration 2.50 %): − − | growth of bacteria (MBC determination) ([2]; final concentration 3.13 %): − − | growth of bacteria (MBC determination) ([2]; final concentration 6.25 %): − − | MBC [2]: 1.56%

— patent publication US20140228440A1, “1-AMINO-ALKYLCYCLOHEXANE DERIVATIVES FOR THE TREATMENT OF INFLAMMATORY SKIN DISEASES” (MERZ PHARMA GmbH & CO. KGaA, priority 2008, published 2014)
